{
  "source": "patent US8143263B2",
  "about": "“Therapeutic agents” (Astrazeneca AB, priority 2008, dated 2012)",
  "data": [
    {"biological_target": "T1, recombinant human pancreatic GLK (Homo sapiens, UniProt P35557)", "T1 sequence (P35557 1-465)": "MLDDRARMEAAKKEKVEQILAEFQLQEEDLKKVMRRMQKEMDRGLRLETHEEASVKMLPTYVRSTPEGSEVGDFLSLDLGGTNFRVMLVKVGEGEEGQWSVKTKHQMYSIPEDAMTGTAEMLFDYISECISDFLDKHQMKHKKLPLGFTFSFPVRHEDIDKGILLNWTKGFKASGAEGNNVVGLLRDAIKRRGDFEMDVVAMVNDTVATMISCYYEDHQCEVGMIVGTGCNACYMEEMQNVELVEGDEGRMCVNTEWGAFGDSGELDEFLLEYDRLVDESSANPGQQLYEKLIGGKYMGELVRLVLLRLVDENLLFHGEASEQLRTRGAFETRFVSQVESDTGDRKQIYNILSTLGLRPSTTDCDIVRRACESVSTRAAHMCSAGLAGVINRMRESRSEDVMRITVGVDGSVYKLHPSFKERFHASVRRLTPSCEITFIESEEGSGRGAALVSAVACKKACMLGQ", "assay": "biochemical", "units": {"EC50": "µM"}, "values": [
      {"smiles": "Cc1ccc(NC(=O)C(CCS(C)(=O)=O)Oc2ncnc3c2cnn3C)nc1", "note": "(stereo not shown) [2-(1-methylpyrazolo[4,5-e]pyrimidin-4-yl)oxy-N-(5-methyl-2-pyridyl)-4-methylsulfonyl-butanamide]", "EC50": "> 100"},
      {"smiles": "Cc1nnc(NC(=O)C(COC(C)C)Oc2ncnc3c2cnn3-c2ccccc2Cl)o1", "note": "(stereo not shown) [2-[1-(2-chlorophenyl)pyrazolo[4,5-e]pyrimidin-4-yl]oxy-3-isopropoxy-N-(5-methyl-1,3,4-oxadiazol-2-yl)propanamide]", "EC50": "> 100"},
      {"smiles": "CC(C)OCC(Oc1ncnc2c1cnn2-c1ccccc1Cl)C(=O)Nc1ncccn1", "note": "(stereo not shown) [2-[1-(2-chlorophenyl)pyrazolo[4,5-e]pyrimidin-4-yl]oxy-3-isopropoxy-N-pyrimidin-2-yl-propanamide]", "EC50": "> 100"},
      {"smiles": "CC(C)OCC(Oc1ncnc2c1cnn2-c1ccccc1Cl)C(=O)Nc1cc(C#N)ccn1", "note": "(stereo not shown) [2-[1-(2-chlorophenyl)pyrazolo[4,5-e]pyrimidin-4-yl]oxy-N-(4-cyano-2-pyridyl)-3-isopropoxy-propanamide]", "EC50": "> 100"},
      {"smiles": "COCCOCCC(Sc1ncnc2c1cnn2-c1ccccc1Cl)C(=O)Nc1ccc(C)cn1", "note": "(stereo not shown) [2-[1-(2-chlorophenyl)pyrazolo[4,5-e]pyrimidin-4-yl]sulfanyl-4-(2-methoxyethoxy)-N-(5-methyl-2-pyridyl)butanamide]", "EC50": "> 100"},
      {"smiles": "CCCCCCC(Sc1ncnc2c1cnn2-c1ccccc1Cl)C(=O)Nc1ccc(C)cn1", "note": "(stereo not shown) [2-[1-(2-chlorophenyl)pyrazolo[4,5-e]pyrimidin-4-yl]sulfanyl-N-(5-methyl-2-pyridyl)octanamide]", "EC50": "> 100"},
      {"smiles": "Cc1cccnc1NC(=O)[C@H](COC(C)C)Oc1ncnc2c1cnn2-c1ncccc1Cl", "note": "[(2S)-2-[1-(3-chloro-2-pyridyl)pyrazolo[4,5-e]pyrimidin-4-yl]oxy-3-isopropoxy-N-(3-methyl-2-pyridyl)propanamide]", "EC50": "> 100"},
      {"smiles": "COc1ccnc(NC(=O)[C@H](COC(C)C)Oc2ncnc3c2cnn3-c2ncccc2Cl)c1", "note": "[(2S)-2-[1-(3-chloro-2-pyridyl)pyrazolo[4,5-e]pyrimidin-4-yl]oxy-3-isopropoxy-N-(4-methoxy-2-pyridyl)propanamide]", "EC50": "> 100"},
      {"smiles": "Cc1nc(NC(=O)[C@H](COC(C)C)Oc2ncnc3c2cnn3-c2ncccc2Cl)nn1C", "note": "[(2S)-2-[1-(3-chloro-2-pyridyl)pyrazolo[4,5-e]pyrimidin-4-yl]oxy-N-(1,5-dimethyl-1,2,4-triazol-3-yl)-3-isopropoxy-propanamide]", "EC50": "> 100"},
      {"smiles": "COc1ccccc1-n1ncc2c(O[C@H](C)C(=O)Nc3ccc(C)cn3)ncnc21", "note": "[(R)-2-[1-(2-methoxyphenyl)pyrazolo[4,5-e]pyrimidin-4-yl]oxy-N-(5-methyl-2-pyridyl)propanamide]", "EC50": "> 100"},
      {"smiles": "COCC[C@@H](Oc1ncnc2c1cnn2-c1ccccn1)C(=O)Nc1ccc(C)cn1", "note": "[(R)-4-methoxy-N-(5-methyl-2-pyridyl)-2-[1-(2-pyridyl)pyrazolo[4,5-e]pyrimidin-4-yl]oxy-butanamide]", "EC50": "> 100"},
      {"smiles": "COCC(Oc1ncnc2c1cnn2-c1ccccc1Cl)C(=O)Nc1ccc(C)cn1", "note": "(stereo not shown) [Example 1, 2-{[1-(2-chlorophenyl)-1H-pyrazolo[3,4-d]pyrimidin-4-yl]oxy}-3-methoxy-N-(5-methylpyridin-2-yl)propanamide]", "EC50": 0.62},
      {"smiles": "COC[C@@H](Oc1ncnc2c1cnn2-c1ccccc1Cl)C(=O)Nc1ccc(C)cn1", "note": "[Example 2, (R)-2-{[1-(2-chlorophenyl)-1H-pyrazolo[3,4-d]pyrimidin-4-yl]oxy}-3-methoxy-N-(5-methylpyridin-2-yl)propanamide]", "EC50": "≥ 100"},
      {"smiles": "COC[C@H](Oc1ncnc2c1cnn2-c1ccccc1Cl)C(=O)Nc1ccc(C)cn1", "note": "[Example 3, (S)-2-{[1-(2-chlorophenyl)-1H-pyrazolo[3,4-d]pyrimidin-4-yl]oxy}-3-methoxy-N-(5-methylpyridin-2-yl)propanamide]", "EC50": 0.17},
      {"smiles": "COCC(Oc1ncnc2c1cnn2-c1ccccc1OC)C(=O)Nc1ccc(C)cn1", "note": "(stereo not shown) [Example 4, 3-methoxy-2-{[1-(2-methoxyphenyl)-1H-pyrazolo[3,4-d]pyrimidin-4-yl]oxy}-N-(5-methylpyridin-2-yl)propanamide]", "EC50": 3.4},
      {"smiles": "COC[C@@H](Oc1ncnc2c1cnn2-c1ccccc1OC)C(=O)Nc1ccc(C)cn1", "note": "[Example 5, (R)-3-methoxy-2-{[1-(2-methoxyphenyl)-1H-pyrazolo[3,4-d]pyrimidin-4-yl]oxy}-N-(5-methylpyridin-2-yl)propanamide]", "EC50": "≥ 100"},
      {"smiles": "COC[C@H](Oc1ncnc2c1cnn2-c1ccccc1OC)C(=O)Nc1ccc(C)cn1", "note": "[Example 6, (S)-3-methoxy-2-{[1-(2-methoxyphenyl)-1H-pyrazolo[3,4-d]pyrimidin-4-yl]oxy}-N-(5-methylpyridin-2-yl)propanamide]", "EC50": 0.68},
      {"smiles": "COCC(Oc1ncnc2c1cnn2-c1ccc(Cl)cc1Cl)C(=O)Nc1ccc(C)cn1", "note": "(stereo not shown) [Example 7, 2-{[1-(2,4-Dichlorophenyl)-1H-pyrazolo[3,4-d]pyrimidin-4-yl]oxy}-3-methoxy-N-(5-methylpyridin-2-yl)propanamide]", "EC50": 3.7},
      {"smiles": "COCC(Oc1ncnc2c1cnn2C)C(=O)Nc1ccc(C)cn1", "note": "(stereo not shown) [Example 8, 3-methoxy-2-[(1-methyl-1H-pyrazolo[3,4-d]pyrimidin-4-yl)oxy]-N-(5-methylpyridin-2-yl)propanamide]", "EC50": "≥ 100"},
      {"smiles": "Cc1ccc(NC(=O)C(CCS(C)(=O)=O)Oc2ncnc3c2cnn3-c2ccccc2Cl)nc1", "note": "(stereo not shown) [Example 9, 2-{[1-(2-chlorophenyl)-1H-pyrazolo[3,4-d]pyrimidin-4-yl]oxy}-N-(5-methylpyridin-2-yl)-4-(methylsulfonyl)butanamide]", "EC50": 0.52},
      {"smiles": "COc1ccccc1-n1ncc2c(OC(CCS(C)(=O)=O)C(=O)Nc3ccc(C)cn3)ncnc21", "note": "(stereo not shown) [Example 10, 2-{[1-(2-methoxyphenyl)-1H-pyrazolo[3,4-d]pyrimidin-4-yl]oxy}-N-(5-methylpyridin-2-yl)-4-(methylsulfonyl)butanamide]", "EC50": 2.7},
      {"smiles": "COc1ccccc1-n1ncc2c(O[C@H](CCS(C)(=O)=O)C(=O)Nc3ccc(C)cn3)ncnc21", "note": "[Example 11, (R)-2-{[1-(2-methoxyphenyl)-1H-pyrazolo[3,4-d]pyrimidin-4-yl]oxy}-N-(5-methylpyridin-2-yl)-4-(methylsulfonyl)butanamide]", "EC50": "≥ 100"},
      {"smiles": "COc1ccccc1-n1ncc2c(O[C@@H](CCS(C)(=O)=O)C(=O)Nc3ccc(C)cn3)ncnc21", "note": "[Example 12, (S)-2-{[1-(2-methoxyphenyl)-1H-pyrazolo[3,4-d]pyrimidin-4-yl]oxy}-N-(5-methylpyridin-2-yl)-4-(methylsulfonyl)butanamide]", "EC50": 2.4},
      {"smiles": "COCCC(Oc1ncnc2c1cnn2-c1cccc(OC)c1)C(=O)Nc1ccc(C)cn1", "note": "(stereo not shown) [Example 13, 4-methoxy-2-{[1-(3-methoxyphenyl)-1H-pyrazolo[3,4-d]pyrimidin-4-yl]oxy}-N-(5-methylpyridin-2-yl)butanamide]", "EC50": 1.4},
      {"smiles": "COCC[C@@H](Oc1ncnc2c1cnn2-c1cccc(OC)c1)C(=O)Nc1ccc(C)cn1", "note": "[Example 14, (R)-4-methoxy-2-{[1-(3-methoxyphenyl)-1H-pyrazolo[3,4-d]pyrimidin-4-yl]oxy}-N-(5-methylpyridin-2-yl)butanamide]", "EC50": "≥ 100"},
      {"smiles": "COCC[C@H](Oc1ncnc2c1cnn2-c1cccc(OC)c1)C(=O)Nc1ccc(C)cn1", "note": "[Example 15, (S)-4-methoxy-2-{[1-(3-methoxyphenyl)-1H-pyrazolo[3,4-d]pyrimidin-4-yl]oxy}-N-(5-methylpyridin-2-yl)butanamide]", "EC50": 2.7},
      {"smiles": "COCCC(Oc1ncnc2c1cnn2-c1ccccc1C)C(=O)Nc1ccc(C)cn1", "note": "(stereo not shown) [Example 16, 4-methoxy-2-{[1-(2-methylphenyl)-1H-pyrazolo[3,4-d]pyrimidin-4-yl]oxy}-N-(5-methylpyridin-2-yl)butanamide]", "EC50": 0.29},
      {"smiles": "COCC[C@H](Oc1ncnc2c1cnn2-c1ccccc1C)C(=O)Nc1ccc(C)cn1", "note": "[Example 17, (S)-4-methoxy-2-{[1-(2-methylphenyl)-1H-pyrazolo[3,4-d]pyrimidin-4-yl]oxy}-N-(5-methylpyridin-2-yl)butanamide]", "EC50": 0.064},
      {"smiles": "COCC[C@@H](Oc1ncnc2c1cnn2-c1ccccc1C)C(=O)Nc1ccc(C)cn1", "note": "[Example 18, (R)-4-methoxy-2-{[1-(2-methylphenyl)-1H-pyrazolo[3,4-d]pyrimidin-4-yl]oxy}-N-(5-methylpyridin-2-yl)butanamide]", "EC50": 32},
      {"smiles": "COCCC(Oc1ncnc2c1cnn2-c1ccccc1Cl)C(=O)Nc1ccc(C)cn1", "note": "(stereo not shown) [Example 19, 2-{[1-(2-Chlorophenyl)-1H-pyrazolo[3,4-d]pyrimidin-4-yl]oxy}-4-methoxy-N-(5-methylpyridin-2-yl)butanamide]", "EC50": 0.095},
      {"smiles": "COCC[C@@H](Oc1ncnc2c1cnn2-c1ccccc1Cl)C(=O)Nc1ccc(C)cn1", "note": "[Example 20, (R)-2-{[1-(2-Chlorophenyl)-1H-pyrazolo[3,4-d]pyrimidin-4-yl]oxy}-4-methoxy-N-(5-methylpyridin-2-yl)butanamide]", "EC50": 9.3},
      {"smiles": "COCC[C@H](Oc1ncnc2c1cnn2-c1ccccc1Cl)C(=O)Nc1ccc(C)cn1", "note": "[Example 21, (S)-2-{[1-(2-chlorophenyl)-1H-pyrazolo[3,4-d]pyrimidin-4-yl]oxy}-4-methoxy-N-(5-methylpyridin-2-yl)butanamide]", "EC50": 0.032},
      {"smiles": "COCCC(Oc1ncnc2c1cnn2-c1ccccc1OC)C(=O)Nc1ccc(C)cn1", "note": "(stereo not shown) [Example 22, 4-Methoxy-2-{[1-(2-methoxyphenyl)-1H-pyrazolo[3,4-d]pyrimidin-4-yl]oxy}-N-(5-methylpyridin-2-yl)butanamide]", "EC50": 0.19},
      {"smiles": "COCC[C@@H](Oc1ncnc2c1cnn2-c1ccccc1OC)C(=O)Nc1ccc(C)cn1", "note": "[Example 23, (R)-4-Methoxy-2-{[1-(2-methoxyphenyl)-1H-pyrazolo[3,4-d]pyrimidin-4-yl]oxy}-N-(5-methylpyridin-2-yl)butanamide]", "EC50": "≥ 100"}
    ]}
  ]
}
